This passage reports IC50 results from US7692014B2, “Inhibitors of the HIV integrase enzyme” (Pfizer, Inc., priority 2004, dated 2010).

The structures appear in SMILES notation.

The target of one assay is T1, Full-length wild type HIV-1 integrase (SF1) (Human immunodeficiency virus type 1 group M subtype B, UniProt P04585).
T1 construct: made in house; host or cells: E. coli BL21 (DE3), pET24a vector
Briefly: Integrase strand-transfer scintillation proximity assay. It counts as biochemical. Conditions: IC50, integrase strand-transfer SPA. An excerpt:
Integrase Strand-Transfer Scintillation Proximity Assay Oligonucleotides
The annealed product represents preprocessed viral ds-DNA derived from the LTR U5 sequence of the viral genome. A ds-DNA control to test for non-specific interactions was made using a 3′ di-deoxy derivative of oligonucleotide #1 annealed to oligonucleotide #2. The CA overhang at the 5′ end of the non-biotinylated strand of the ds-DNA was created artificially by using a complimentary DNA oligonucleotide shortened by 2 base pairs. This configuration eliminates the requisite 3′ processing step of the integrase enzyme prior to the strand-transfer mechanism.
Host ds-DNA was prepared as an unlabeled and [^3H]-thymidine labeled product from annealed oligonucleotide #3—5-[…]-3′ (SEQ ID NO: 3), and oligonucleotide #4—5′-[…]-3′ (SEQ ID NO: 4), both synthesized by TriLink BioTechnologies, Inc. (San Diego, Calif.). The annealed product had overhanging 3′ ends of poly(dA). […] The radiolabeled product was purified using a NENSORB cartridge and stored in stabilized aqueous solution (PerkinElmer).
Reagents: Streptavidin-coated polyvinyltoluene (PVT) SPA beads were purchased from Amersham Biosciences (Piscataway, N.J.). Cesium chloride was purchased from Shelton Scientific, Inc. (Shelton, Conn.). White, polystyrene, flat-bottom, non-binding surface, 96-well plates were purchased from Corning. All other buffer components were purchased from Sigma (St. Louis, Mo.) unless otherwise indicated. Enzyme Construction: Full-length wild type HIV-1 integrase (SF1) sequence (amino acids 1-288) was constructed in a pET24a vector (Novagen, Madison, Wis.). […] Enzyme Purification: Full length wild-type HIV Integrase was expressed in E.coli BL21 (DE3) cells and induced with 1 mM isopropyl-1 thio-β-D-galactopyranoside (IPTG) when cells reached an optical density between 0.8-1.0 at 600 nm. Cells were lysed by microfluidation in 50 mM HEPES pH 7.0, 75 mM NaCl, 5 mM DTT, 1 mM 4-(2-Aminoethyl)benzenesulfonylfluoride HCl (AEBSF). Lysate was then centrifuged 20 minutes at 11 k rpm in GSA rotor in Sorvall RC-5B at 4° C. Supernant was discarded and pellet resuspended in 50 mM HEPES pH 7.0, 750 mM NaCl, 5 mM DTT, 1 mM AEBSF and homogenized in a 40 mL Dounce homogenizer for 20 minutes on ice. Homogenate was then centrifuged 20 minutes at 11 k rpm in SS34 rotor in Sorvall RC-5B at 4° C. Supernant was discarded and pellet resuspended in 50 mM HEPES pH 7.0, 750 mM NaCl, 25 mM CHAPS, 5 mM DTT, 1 mM AEBSF. Preparation was then centrifuged 20 minutes at 11 k rpm in SS34 rotor in Sorvall RC-5B at 4° C.
Supernant was then diluted 1:1 with 50 mM HEPES pH 7.0, 25 mM CHAPS, 1 mM DTT, 1 mM AEBSF and loaded onto a Q-Sepharose column pre-equilibrated with 50 mM HEPES, pH 7.0, 375 mM NaCl, 25 mM CHAPS, 1 mM DTT, 1 mM AEBSF. The flow through peak was collected and NaCl diluted to 0.1 M with 50 mM HEPES pH 7.0, 25 mM CHAPS, 1 mM DTT, 0.5 mM AEBSF and loaded onto a SP-Sepharose column pre-equilibrated with 50 mM HEPES pH 7.0, 100 mM NaCl, 25 mM CHAPS, 1 mM DTT, 0.5 mM AEBSF. After washing the column with the equilibration buffer, a 100 to 400 mM NaCl gradient was run. The eluted integrase was concentrated and run on a S-300 gel diffusion column using 50 mM HEPES pH 7.0, 500 mM NaCl, 25 mM CHAPS, 1 mM DTT, 0.5 mM AEBSF. […] All columns were run in a 4° C. cold room.
Viral DNA Bead Preparation: Streptavidin-coated SPA beads were suspended to 20 mg/mL in 25 mM 3-morpholinopropanesulfonic acid (MOPS) (pH 7.2) and 1.0% NaN3.
(In general: Scintillation proximity formats need no separation of bound from free tracer.)
For `NC(=O)[C@@H]1CCCN1Cc1cn(Cc2ccc(F)cc2)c2cnc3c(=O)n(O)ccc3c12` [Example 5, 1-{[3-(4-fluorobenzyl)-7-hydroxy-6-oxo-6,7-dihydro-3H-pyrrolo[2,3-c]-1,7-naphthyridin-1-yl]methyl}-L-prolinamide], the concentration for half-maximal inhibition (IC50) is 18 nM.
Still for that read-out and setting: for `CN(Cc1ccccc1)Cc1cn(Cc2ccc(F)cc2)c2cnc3c(=O)n(O)ccc3c12` [Example 54, 1-{[benzyl(methyl)amino]methyl}-3-(4-fluorobenzyl)-7-hydroxy-3,7-dihydro-6H-pyrrolo[2,3-c]-1,7-naphthyridin-6-one] the value was 13.5 nM.

The assay is the same for the next values; noted with them: integrase strand-transfer SPA; read-out: IC50.
For `O=c1c2ncc3c(c(CN4CCCCC4CO)cn3Cc3ccc(F)cc3)c2ccn1O` (centres unmarked) [Example 49, 3-(4-fluorobenzyl)-7-hydroxy-1-{[2-(hydroxymethyl)piperidin-1-yl]methyl}-3,7-dihydro-6H-pyrrolo[2,3-c]-1,7-naphthyridin-6-one], the IC50 worked out at 13 nM.
On the same count and under the same terms, the result for `CCN(CC)CCN(CC)Cc1cn(Cc2ccc(F)cc2)c2cnc3c(=O)n(O)ccc3c12` [Example 50, 1-{[[2-(diethylamino)ethyl] (ethyl)amino]methyl}-3-(4-fluorobenzyl)-7-hydroxy-3,7-dihydro-6H-pyrrolo[2,3-c]-1,7-naphthyridin-6-one] reads 11.5 nM; that for `CCCN(CCO)Cc1cn(Cc2ccc(F)cc2)c2cnc3c(=O)n(O)ccc3c12` [Example 48, 3-(4-fluorobenzyl)-7-hydroxy-1-{[(2-hydroxyethyl)(propyl)amino]methyl}-3,7-dihydro-6H-pyrrolo[2,3-c]-1,7-naphthyridin-6-one], 11 nM.
With `O=C(NCc1ccccn1)c1cn(Cc2ccc(F)cc2)c2cnc3c(=O)n(O)ccc3c12` [Example 29, 3-(4-fluorobenzyl)-7-hydroxy-6-oxo-N-(pyridin-2-ylmethyl)-6,7-dihydro-3H-pyrrolo[2,3-c]-1,7-naphthyridine-1-carboxamide], the IC50 came out at 12 nM.
Same read-out and setting: for `O=c1c2ncc3c(c(COC4CCOCC4)cn3Cc3ccc(F)cc3)c2ccn1O` [Example 37, 3-(4-fluorobenzyl)-7-hydroxy-1-[(tetrahydro-2H-pyran-4-yloxy)methyl]-3,7-dihydro-6H-pyrrolo[2,3-c]-1,7-naphthyridin-6-one] the value was 23 nM; for `NC(=O)[C@@H]1CCCN1S(=O)(=O)c1cn(Cc2ccc(F)cc2)c2cnc3c(=O)n(O)ccc3c12` [Example 20, 1-{[3-(4-fluorobenzyl)-7-hydroxy-6-oxo-6,7-dihydro-3H-pyrrolo[2,3-c]-1,7-naphthyridin-1-yl]sulfonyl)-L-prolinamide], 9 nM.
Same read-out and setting: for `Cc1cccc(CNCc2cn(Cc3ccc(F)cc3)c3cnc4c(=O)n(O)ccc4c23)c1` [Example 41, 3-(4-fluorobenzyl)-7-hydroxy-1-{[(3-methylbenzyl)amino]methyl}-3,7-dihydro-6H-pyrrolo[2,3-c]-1,7-naphthyridin-6-one] the value was 42 nM; for `NC(=O)[C@H]1CCCN1Cc1cn(Cc2ccc(F)cc2)c2cnc3c(=O)n(O)ccc3c12` [Example 12, 1-{[3-(4-fluorobenzyl)-7-hydroxy-6-oxo-6,7-dihydro-3H-pyrrolo[2,3-c]-1,7-naphthyridin-1-yl]methyl)-D-prolinamide], 13 nM; for `O=C1NCCC12CCN(Cc1cn(Cc3ccc(F)cc3)c3cnc4c(=O)n(O)ccc4c13)CC2` [Example 13, 3-(4-fluorobenzyl)-7-hydroxy-1-[(1-oxo-2,8-diazaspiro[4,5]dec-8-yl)methyl]-3,7-dihydro-6H-pyrrolo[2,3-c]-1,7-naphthyridin-6-one], 8 nM.
Consider `CN(CCc1ccccn1)Cc1cn(Cc2ccc(F)cc2)c2cnc3c(=O)n(O)ccc3c12` [Example 16, 3-(4-fluorobenzyl)-7-hydroxy-1-{[methyl (2-pyridin-2-ylethyl)amino]methyl}-3,7-dihydro-6H-pyrrolo[2,3-c]-1,7-naphthyridin-6-one], for which the IC50 was determined as 6 nM.
On the same count and under the same terms, the result for `CN(Cc1cnn(-c2ccccc2)c1)Cc1cn(Cc2ccc(F)cc2)c2cnc3c(=O)n(O)ccc3c12` [Example 59, 3-(4-fluorobenzyl)-7-hydroxy-1-({methyl[(1-phenyl-1H-pyrazol-4-yl)methyl]amino}methyl)-3,7-dihydro-6H-pyrrolo[2,3-c]-1,7-naphthyridin-6-one] reads 19 nM.
Regarding `CCN1CCN(Cc2cn(Cc3ccc(F)cc3)c3cnc4c(=O)n(O)ccc4c23)CC1` [Example 8, 1[(4-ethylpiperazin-1-yl)methyl]-3-(4-fluorobenzyl)-7-hydroxy-3,7-dihydro-6H-pyrrolo[2,3-c]-1,7-naphthyridin-6-one], the half-maximal inhibitory concentration (IC50) turned out to be 14 nM.
As for `O=c1c2ncc3c(c(S(=O)(=O)NCc4ccc(F)cc4)cn3Cc3ccc(F)cc3)c2ccn1O` [Example 25, N,3-bis(4-fluorobenzyl)-7-hydroxy-6-axo-6,7-dihydro-3H-pyrrolo[2,3-c]-1,7-naphthyridine-1-sulfonamide], the IC50 came out at 35 nM.
The same measure, in the same setting: for `O=C1NC[C@@H]2CCN(Cc3cn(Cc4ccc(F)cc4)c4cnc5c(=O)n(O)ccc5c34)C[C@H]12` [Example 56, 3-(4-fluorobenzyl)-7-hydroxy-1-{[(3aR,7aR)-3-oxooctahydro-5H-pyrrolo[3,4-c]pyridin-5-yl]methyl}-3,7-dihydro-6H-pyrrolo[2,3-c]-1,7-naphthyridin-6-one] the value was 11.5 nM.
Consider `O=c1c2ncc3c(c(CNCc4ccccn4)cn3Cc3ccc(F)cc3)c2ccn1O` [Example 44], for which the IC50 was 31 nM.
On the same count and under the same terms, the result for `CN1CCN(Cc2cn(Cc3ccc(F)cc3)c3cnc4c(=O)n(O)ccc4c23)CC1` [Example 7, 3-(4-fluorobenzyl)-7-hydroxy-1-[(4-methylpiperazin-1-yl)methyl]-3,7-dihydro-6H-pyrrolo[2,3-c]-1,7-naphthyridin-6-one] reads 17 nM; that for `O=c1c2ncc3c(c(COCCOC4CCCCC4)cn3Cc3ccc(F)cc3)c2ccn1O` [Example 34, 1-{[2-(cyclohexyloxy)ethoxy]methyl}-3-(4-fluorobenzyl)-7-hydroxy-3,7-dihydro-6H-pyrrolo[2,3-c]-1,7-naphthyridin-6-one], 45 nM.
Still for that read-out and setting: the result for `CCN(Cc1ccc(C)cc1)Cc1cn(Cc2ccc(F)cc2)c2cnc3c(=O)n(O)ccc3c12` [Example 51, 1-{[ethyl(4-methylbenzyl)amino]methyl}-3-(4-fluorobenzyl)-7-hydroxy-3,7-dihydro-6H-pyrrolo[2,3-c]-1,7-naphthyridin-6-one] reads 17.5 nM; that for `O=c1c2ncc3c(c(CN4CCOCC4)cn3Cc3ccc(F)cc3)c2ccn1O` [Example 57, 3-(4-fluorobenzyl)-7-hydroxy-1-(morpholin-4-ylmethyl)-3,7-dihydro-6H-pyrrolo[2,3-c]-1,7-naphthyridin-6-one], 7 nM; that for `O=C1CN(Cc2cn(Cc3ccc(F)cc3)c3cnc4c(=O)n(O)ccc4c23)CCN1` [Example 6, 3-(4-fluorobenzyl)-7-hydroxy-1-[(3-oxopiperazin-1-yl)methyl]-3,7-dihydro-6H-pyrrolo(2,3-c]-1,7-naphthyridin-6-one], 7 nM.
For the molecule `O=c1c2ncc3c(c(CNCc4ccc(C(F)(F)F)cc4)cn3Cc3ccc(F)cc3)c2ccn1O` [Example 43, 3-(4-fluorobenzyl)-7-hydroxy-1-({[4-(trifluoromethyl)benzyl]amino}methyl)3,7-dihydro-6H-pyrrolo[2,3-c]-1,7-naphthyridin-6-one], the IC50 amounted to 122 nM.

The IC50 is the concentration that inhibits the measured activity by half.
